The supplement of paper PMC4862054

Tests used:
Details in all cases: incubation time: 72 h
[1] = tested on: HCC1143; assay: normalised response (% of control), CellTiter-Glo; higher = more viable cells (100 = DMSO, 0 = benzethonium chloride kill control)
Outline: (§1)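 Compound was dispensed into 384-well plates at 5 concentrations in 10-fold steps spanning a 10,000-fold range specific to that compound. Breast cancer cell lines were added as 20 µl suspension and left for 72 h before CellTox Green fluorescence (485/520 nm) and then CellTiter-Glo luminescence, read after 10 min at room temperature. Each reported value is the normalised signal at one concentration, with 0.1 % DMSO set at 100 and a positive kill control at 0 on each plate.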

[2] = tested on: MDA-MB-468; assay: as above
Outline: as §1

[3] = tested on: MCF-10A; assay: as above
Outline: as §1

[4] = tested on: SK-BR-3; assay: as above
Outline: as §1

[5] = tested on: BT-549; assay: as above
Outline: as §1

[6] = tested on: MFM-223; assay: as above
Outline: as §1

[7] = tested on: HDQ-P1; assay: as above
Outline: as §1

[8] = tested on: MDA-MB-436; assay: as above
Outline: as §1

[9] = tested on: DU-4475; assay: as above
Outline: as §1

[10] = tested on: MDA-MB-453; assay: as above
Outline: as §1

[11] = tested on: HCC1937; assay: as above
Outline: as §1

[12] = tested on: CAL-85-1; assay: as above
Outline: as §1

[13] = tested on: CAL-120; assay: as above
Outline: as §1

[14] = tested on: HCC1599; assay: as above
Outline: as §1

[15] = tested on: CAL-51; assay: as above
Outline: as §1

[16] = tested on: Hs578T; assay: as above
Outline: as §1

[17] = tested on: BT-474; assay: as above
Outline: as §1

[18] = tested on: CAL-148; assay: as above
Outline: as §1

[19] = tested on: MDA-MB-231; assay: as above
Outline: as §1

[20] = tested on: HCC1143; assay: normalised viability (% of control), CellTiter-Blue; higher = more viable cells (100 = DMSO, 0 = benzethonium chloride kill control)
Method: (§2)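 DSRT, CellTiter-Blue viability, 72 h incubation. Signal is normalised to DMSO and benzethonium chloride controls. Value is the normalised response at dose 1.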

[21] = tested on: MDA-MB-468; assay: as above
Method: as §2

[22] = tested on: SK-BR-3; assay: as above
Method: as §2

[23] = tested on: BT-549; assay: as above
Method: as §2

[24] = tested on: MFM-223; assay: as above
Method: as §2

[25] = tested on: HDQ-P1; assay: as above
Method: as §2

[26] = tested on: MDA-MB-436; assay: as above
Method: as §2

[27] = tested on: DU-4475; assay: as above
Method: as §2

[28] = tested on: MDA-MB-453; assay: as above
Method: as §2

[29] = tested on: HCC1937; assay: as above
Method: as §2

[30] = tested on: CAL-85-1; assay: as above
Method: as §2

[31] = tested on: CAL-120; assay: as above
Method: as §2

[32] = tested on: HCC1599; assay: as above
Method: as §2

[33] = tested on: CAL-51; assay: as above
Method: as §2

[34] = tested on: Hs578T; assay: as above
Method: as §2

[35] = tested on: BT-474; assay: as above
Method: as §2

[36] = tested on: CAL-148; assay: as above
Method: as §2

[37] = tested on: MDA-MB-231; assay: as above
Method: as §2

Row | SMILES | normalised response [1] [%] | normalised response [2] [%] | normalised response [3] [%] | normalised response [4] [%] | normalised response [5] [%] | normalised response [6] [%] | normalised response [7] [%] | normalised response [8] [%] | normalised response [9] [%] | normalised response [10] [%] | normalised response [11] [%] | normalised response [12] [%] | normalised response [13] [%] | normalised response [14] [%] | normalised response [15] [%] | normalised response [16] [%] | normalised response [17] [%] | normalised response [18] [%] | normalised response [19] [%] | normalised viability [20] [%] | normalised viability [21] [%] | normalised viability [22] [%] | normalised viability [23] [%] | normalised viability [24] [%] | normalised viability [25] [%] | normalised viability [26] [%] | normalised viability [27] [%] | normalised viability [28] [%] | normalised viability [29] [%] | normalised viability [30] [%] | normalised viability [31] [%] | normalised viability [32] [%] | normalised viability [33] [%] | normalised viability [34] [%] | normalised viability [35] [%] | normalised viability [36] [%] | normalised viability [37] [%]
1 | CCOc1cc2ncc(C#N)c(Nc3ccc(OCc4ccccn4)c(Cl)c3)c2cc1NC(=O)/C=C/CN(C)C [Neratinib] (0.1 nM) | 100 | 105 | 104 | 101 | 103 | 108 | 102 | 94.8 | 98.5 | 117 | 97.8 | 97.2 | 98.4 | 96.6 | 89 | 106 | 105 | 105 | 98.3 | 103 | 100 | 99.8 | 105 | 99.2 | 86.8 | 123 | 107 | 105 | 82.6 | 83 | 86 | 104 | 91.5 | 99.7 | 97.3 | 96.7 | 99.6
2 | COc1cccc2c1C(=O)c1c(O)c3c(c(O)c1C2=O)C[C@@](O)(C(C)=O)C[C@@H]3O[C@H]1C[C@H](N)[C@H](O)[C@H](C)O1 [Daunorubicin] (0.1 nM) | 103 | 102 | 112 | 101 | 106 | 108 | 104 | 129 | 100 | 112 | 95.6 | 102 | 99 | 104 | 108 | 107 | 108 | 112 | 105 | 102 | 100 | 85.2 | 100 | 97.3 | 98.8 | 99.1 | 88.2 | 107 | 115 | 88.7 | 87.8 | 101 | 99.2 | 130 | 101 | 106 | 103
3 | COC1=C2C[C@@H](C)C[C@H](OC)[C@H](O)[C@@H](C)/C=C(\C)[C@H](OC(N)=O)[C@@H](OC)/C=C\C=C(/C)C(=O)NC(=CC1=O)C2=O [Geldanamycin] (1 nM) | 107 | 109 | 105 | 110 | 101 | 103 | 101 | 107 | 102 | 127 | 101 | 101 | 107 | 101 | 100 | 108 | 105 | 129 | 103 | 95.3 | 103 | 103 | 96.8 | 99.9 | 124 | 110 | 132 | 108 | 92.3 | 94.6 | 92.6 | 87.6 | 105 | 130 | 112 | 119 | 96
4 | COC1=CC(c2cc3ccccc3[nH]2)=N/C1=C\c1[nH]c(C)cc1C [Obatoclax] (1 nM) | 92.5 | 98.7 | 87 | 89 | 97.7 | 92.8 | 92.9 | 95.6 | 100 | 90.6 | 95.4 | 95 | 96.4 | 87.7 | 111 | 93.5 | 96.6 | 87.8 | 96.6 | 81 | 99 | 74.9 | 90.6 | 81 | 78.8 | 83.5 | 93.6 | 86.2 | 90.5 | 78.3 | 79.6 | 85.6 | 105 | 103 | 96.2 | 94.7 | 71.4
5 | C[C@@]1(C(=O)Nc2ccc(F)nc2)CCCN1c1nc(Nc2cc(C3CC3)n[nH]2)c2cccn2n1 (1 nM) | 89 | 93.6 | 77.6 | 87.3 | 95.9 | 87.7 | 91.2 | 83.9 | 95.2 | 91.9 | 88.7 | 93 | 87.5 | 90.4 | 95.1 | 95.3 | 93 | 83.3 | 94.2 | 92 | 107 | 101 | 88.2 | 96.1 | 95.4 | 122 | 105 | 98.1 | 118 | 92.9 | 90.9 | 102 | 99.6 | 104 | 99 | 97.1 | 115
6 | CS(=O)(=O)OCCCCOS(C)(=O)=O [Busulfan] (10 nM) | 99.3 | 97.3 | 104 | 111 | 103 | 102 | 95.6 | 89.5 | 106 | 108 | 95.5 | 104 | 92.4 | 84.3 | 87.1 | 101 | 102 | 96 | 99.2 | 100 | 102 | 97 | 92.2 | 88.7 | 106 | 105 | 104 | 117 | 78.8 | 105 | 112 | 105 | 88.3 | 92 | 82.1 | 131 | 112
7 | CN1CCN(c2ccc3nc(-c4c(N)c5c(F)cccc5[nH]c4=O)[nH]c3c2)CC1 [Dovitinib] (1 nM) | 98.3 | 99.6 | 89.3 | 94.1 | 102 | 95.4 | 96 | 99.5 | 96.2 | 102 | 96.3 | 100 | 94.9 | 105 | 106 | 103 | 99.9 | 98.2 | 102 | 87.3 | 89.2 | 77.6 | 96.2 | 80.6 | 87.4 | 105 | 113 | 98.3 | 92.2 | 82 | 78.8 | 92.6 | 114 | 96.5 | 110 | 104 | 84.5
8 | COC(=O)C[C@](O)(CCCC(C)(C)O)C(=O)O[C@@H]1C(OC)=C[C@]23CCCN2CCc2cc4c(cc2[C@H]13)OCO4 [Omacetaxine] (1 nM) | 109 | 108 | 108 | 108 | 92.1 | 103 | 104 | 97.1 | 96 | 121 | 98.3 | 101 | 99.8 | 88.4 | 79.9 | 101 | 106 | 110 | 104 | 91.7 | 95.2 | 97.3 | 95.4 | 90.3 | 84.7 | 91.1 | 93.6 | 91.6 | 96.5 | 90.6 | 82 | 78.4 | 96.3 | 106 | 101 | 107 | 97.3
